Assay results reported in US11738065B2, “Polypeptides and analogues thereof for use in the treatment of diabetes and bone disorders” (UNIVERSITY OF ULSTER, priority 2015, dated 2023).

Tests used:
BRIN-BD11 cells = test: In vitro insulin secretion from BRIN-BD11 cells; assay type: cell-based
Experimental: BRIN-BD11 cells were used to assess the insulin releasing activity of polypeptides as described by […] et al., 1996 (Diabetes. 1996 August; 45(8):1132-40). Cells were cultured in RPMI-1640 growth media supplemented with 10% (v/v) foetal bovine serum (FBS) and 1% (v/v) antibiotics (penicillin (100 U/ml), streptomycin ([…])), in 75 cm2 sterile tissue culture flasks (Greiner bio-one, UK) maintained at 37° C. and 5% CO2 in a LEEC incubator (Laboratory technical engineering, Nottingham, UK). BRIN-BD11 cells were then seeded at a density of 150,000 cells/well in 24-well plates (Nunc, Roskilde, Denmark) and allowed to attach overnight at 37° C.

lean control mice = test: Acute and persistent glucose lowering and insulin releasing effects in lean control mice; assay type: in vivo
Experimental: All animal experiments were carried out in accordance with the UK Animals (Scientific Procedures) Act 1986. For food intake studies, fasted (18 h) mice were given intraperitoneal (i.p) injections of polypeptides at a dose of 25, 100 or 250 nmol/kg bw. Mice were then allowed free access to normal chow for 180 mins and cumulative food intake measured. […] Blood samples were collected from the cut tip on the tail vein of conscious mice into chilled fluoride/heparin glucose micro-centrifuge tubes (Sarstedt, Numbrecht, Germany) at the time points indicated in the Drawings. Blood glucose was measured directly using a hand-held Ascencia Contour blood glucose meter (Bayer Healthcare, Newbury, Berkshire, UK).

high fat fed mice = test: Insulin sensitivity test and HOMA-IR after 21 days treatment; assay type: in vivo
Experimental: On day 21, a non-fasted 24 h glucose profile was conducted. […] HOMA-IR was determined using the equation HOMA-IR=fasting glucose (mmol/l)×fasting insulin (mU/l)/22.5. […] Terminal analysis included measurement of total body fat and lean mass by DEXA scanning (Piximus Densitometer, Inside Outside Sales, Madison Wis., USA) and extraction of pancreatic tissue for analysis as detailed below. […] Briefly, pancreatic tissues were fixed in 4% parafolmaldehyde at 4° C. for 48 h. Pancreata were then embedded in paraffin wax and processed using an automated tissue processor (Leica TP1020, Leica Microsystems, Nussloch, Germany). Immunohistochemistry was performed as described by Vasu et al., 2014 (PLoS One. 2014 Jun. 26; 9(6):e101005). […] Abcam, ab6995) or guinea-pig anti-glucagon antibody (PCA2/4, 1:400; raised in-house). […] The slides were viewed under a FITC (488 nm) or TRITC filter (594 nm) using a fluorescent microscope (Olympus system microscope, model BX51) and photographed using a DP70 camera adapter system. Islet parameters were analysed using Cell^F image analysis software (Olympus Soft Imaging Solutions, GmbH).

DPP-4 = target: T1, DPP-4 (Sus scrofa, UniProt P22411); test: DPP-4 degradation / in vitro DPP-4 half-life; assay type: in vitro ADME, porcine; conditions: pig; 37° C., 50 mmol/L TEA-HCl pH 7.8, 5 mU purified porcine DPP-4, 0-12 h
T1 construct: purchased Sigma-Aldrich, Dorset, UK
T1 sequence (P22411 whole entry): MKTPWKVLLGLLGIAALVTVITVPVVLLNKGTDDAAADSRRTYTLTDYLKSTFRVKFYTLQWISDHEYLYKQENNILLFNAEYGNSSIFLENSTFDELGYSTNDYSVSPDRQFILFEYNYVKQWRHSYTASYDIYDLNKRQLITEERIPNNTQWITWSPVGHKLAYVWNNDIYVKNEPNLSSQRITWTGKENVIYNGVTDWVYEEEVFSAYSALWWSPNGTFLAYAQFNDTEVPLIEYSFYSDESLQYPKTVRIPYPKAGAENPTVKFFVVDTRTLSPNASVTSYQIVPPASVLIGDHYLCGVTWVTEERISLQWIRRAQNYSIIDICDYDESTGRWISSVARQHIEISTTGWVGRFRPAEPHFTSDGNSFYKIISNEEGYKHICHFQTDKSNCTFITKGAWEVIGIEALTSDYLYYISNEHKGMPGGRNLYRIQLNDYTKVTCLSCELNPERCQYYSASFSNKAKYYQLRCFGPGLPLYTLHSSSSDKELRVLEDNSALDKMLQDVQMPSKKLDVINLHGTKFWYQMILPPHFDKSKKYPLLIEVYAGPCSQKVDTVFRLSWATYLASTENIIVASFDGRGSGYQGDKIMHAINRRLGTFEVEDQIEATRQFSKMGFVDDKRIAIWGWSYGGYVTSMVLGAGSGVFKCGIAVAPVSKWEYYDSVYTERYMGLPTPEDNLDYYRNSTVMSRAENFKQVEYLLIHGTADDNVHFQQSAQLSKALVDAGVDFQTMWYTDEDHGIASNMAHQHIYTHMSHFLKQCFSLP
Experimental: (§1) For calculation of experimental molecular masses, peptide samples (1 μg) were mixed with α-cyano-4-hydroxycinnamic acid (1 μg) and applied to a Voyager-DE BioSpectrometry Workstation and mass-to-charge (m/z) ratio verses peak intensity recorded by MALDI-TOF mass spectrometry. […] Degradation profiles were obtained using rp-HPLC analysis and HPLC peak area data used to calculate percentage intact peptide remaining at each time point.
(§2) Briefly, polypeptides (20 μg) were incubated with 5 μl of purified DPP-4 (5 mU, Sigma-Aldrich, Dorset, UK) in 50 mM TEA-HCl (pH 7.8; final volume 450 μl) at 37° C. for 0, 1, 4 and 12 hours. Enzymatic reactions were terminated by the addition of 50 μl TFA/H2O (10% v/v, Sigma-Aldrich, Dorset, UK). Reaction products were then separated by HPLC and analysed using MALDI-TOF.

purified porcine DPP-4 = target: T2, purified porcine DPP-4 (Sus scrofa, UniProt P22411); test: DPP-4 degradation / in vitro DPP-4 half-life; assay type: in vitro ADME; conditions: incubated in the presence of DPP-4 for up to 12 hs
T2 construct: purchased Sigma-Aldrich, Dorset, UK
T2 sequence (P22411 whole entry): as above
Experimental: as §1, §2

[1] = 25 nmol/kg 4 h before glucose 18 mmol/kg, vs saline

Structure (SMILES): CC[C@H](C)[C@H](NC(=O)[C@H](CO)NC(=O)[C@H](Cc1ccc(O)cc1)NC(=O)[C@H](CC(=O)O)NC(=O)[C@H](CO)NC(=O)[C@@H](NC(=O)[C@H](Cc1ccccc1)NC(=O)[C@@H](NC(=O)CNC(=O)[C@H](CCC(=O)O)NC(=O)[C@@H](C)NC(=O)[C@@H](N)Cc1ccc(O)cc1)[C@@H](C)O)[C@@H](C)CC)C(=O)N[C@@H](C)C(=O)N[C@@H](CCSC)C(=O)N[C@@H](CC(=O)O)C(=O)N[C@@H](CCCCN)C(=O)N[C@H](C(=O)N[C@@H](Cc1c[nH]cn1)C(=O)N[C@@H](CCC(N)=O)C(=O)N[C@@H](CCC(N)=O)C(=O)N[C@@H](CC(=O)O)C(=O)N[C@@H](Cc1ccccc1)C(=O)N[C@H](C(=O)N[C@@H](CC(N)=O)C(=O)N[C@@H](Cc1c[nH]c2ccccc12)C(=O)N[C@@H](CC(C)C)C(=O)N[C@@H](CC(C)C)C(=O)N[C@@H](C)C(=O)N[C@@H](CCC(N)=O)C(=O)N[C@@H](CCCCN)C(=O)NCC(=O)N[C@@H](CCCCN)C(=O)N[C@@H](CCCCN)C(=O)N[C@@H](CC(N)=O)C(=O)N[C@@H](CC(=O)O)C(=O)N[C@@H](Cc1c[nH]c2ccccc12)C(=O)N[C@@H](CCCCN)C(=O)N[C@@H](Cc1c[nH]cn1)C(=O)N[C@@H](CC(N)=O)C(=O)N[C@H](C(=O)N[C@H](C(=O)N[C@@H](CCC(N)=O)C(=O)O)[C@@H](C)O)[C@@H](C)CC)C(C)C)[C@@H](C)CC [(DAla2)GIP, TYR-(d)ALA-GLU-GLY-THR-PHE-ILE-SER-ASP-TYR-SER-ILE-ALA-MET-ASP-LYS-ILE-HIS-GLN-GLN-ASP-PHE-VAL-ASN-TRP-LEU-LEU-ALA-GLN-LYS-GLY-LYS-LYS-ASN-ASP-TRP-LYS-HIS-ASN-ILE-THR-GLN]
- Insulin secretion from BRIN-BD11 cells (BRIN-BD11 cells; 10^−6 mol/l peptide, 20 min, vs 5.6 and 16.7 mmol/l glucose control): significantly (P<0.05 to P<0.001) stimulated insulin secretion
- Insulin release from BRIN-BD11 cells (BRIN-BD11 cells; 10^−8 M peptide, vs 5.6 and 16.7 mmol/l glucose controls respectively): significant (P<0.001 and P<0.01; respectively) increases in insulin release
- Overall AUC blood glucose, peptide 4 h prior to glucose load (lean control mice; [1]): significantly reduced
- Plasma insulin AUC, peptide 4 h prior to glucose load (lean control mice; [1]): increased plasma insulin AUC values (P<0.05)
- Blood glucose at 15 min post-injection (lean control mice; 25 nmol/kg with glucose 18 mmol/kg i.p.): significant (P<0.05) reduction in blood glucose levels
- Blood glucose at 30 min post injection (lean control mice; 25 nmol/kg with glucose 18 mmol/kg i.p., non-fasted mice, vs glucose alone): significantly (P<0.05) lowered blood glucose values
- Overall 0-105 min AUC blood glucose (lean control mice; 25 nmol/kg with glucose 18 mmol/kg i.p., vs glucose alone): significantly (P<0.05) decreased
- HOMA-IR insulin sensitivity (high fat fed mice; 21 days treatment, vs high fat controls): significantly (P<0.05) improved insulin sensitivity
- Individual blood glucose levels following exogenous insulin (high fat fed mice; insulin 15 U/kg i.p., day 21, vs high fat controls): reduced, albeit non-significantly
- Overall glucose lowering effect of insulin (blood glucose AAC 0-60 min) (high fat fed mice; insulin 15 U/kg i.p., day 21, vs saline control high fat mice): significantly (P<0.001) improved
- half-life (DPP-4): > 12 h
- Intactness on incubation with DPP-4 (purified porcine DPP-4): remained fully intact
